According to patent US20090143279A1 (priority 2007, published 2009):
Read-outs that look alike come from different tables or passages of the source.

Key:
Conditions in all cases: Conc 20 μM
[1] = tested on: OXPHOS gene expression; assay type: cell-based, mouse
[2] = tested on: cytochrome c; assay type: cell-based, mouse
[3] = tested on: C2C12 myotubes
[4] = tested on: mitochondrial membrane potential; assay type: cell-based, mouse
[5] = tested on: nuOXPHOS transcripts; assay type: cell-based, mouse
[6] = tested on: mtOXPHOS transcripts; assay type: cell-based, mouse
[7] = tested on: cellular dehydrogenase activity
[8] = tested on: reactive oxygen species; assay type: cell-based, mouse
[9] = composite Z-score vs mock-treated (DMSO) wells
[10] = normalized composite Z-score vs mock-treated (DMSO) wells
[11] = normalized score vs mock-treated (DMSO) wells

SMILES: CC1(C)C(=O)C=C[C@]2(C)[C@H]3CC[C@@]4(C)[C@H](c5ccoc5)OC(=O)[C@H]5O[C@]54[C@]3(C)C(=O)C[C@@H]12 [deacetoxy-7-oxogedunin]
- GE-HTS [1, 9]: −0.407
- cyt c [2, 9]: 0.047
- Viability [3, 9]: 0.089
- ΔΨm [4, 9]: 1.322
- nucOX [5, 9]: −0.287
- mitoOX [6, 9]: −0.632
- MTT [7, 9]: −0.029
- ROS [8, 9]: −0.301

SMILES: CC1(C)C(=O)C=C[C@]2(C)[C@H]3CC[C@@]4(C)[C@H](c5ccoc5)OC(=O)[C@H]5O[C@]54[C@]3(C)[C@H](O)C[C@@H]12 [deacetylgedunin]
- GE-HTS [1, 9]: −0.322
- cyt c [2, 9]: −0.489
- Viability [3, 9]: −0.032
- ΔΨm [4, 9]: 0.349
- nucOX [5, 9]: −0.244
- mitoOX [6, 9]: −0.484
- MTT [7, 9]: −0.958
- ROS [8, 9]: −0.966

SMILES: CC(C)c1ccc2c(c1)CC[C@H]1[C@](C)(C(N)=O)CCC[C@]21C [dehydroabietamide]
- GE-HTS [1, 10]: −0.843
- cyt c [2, 10]: 0.030
- Viability [3, 10]: 0.807
- ΔΨm [4, 10]: 1.642
- nucOX [5, 10]: −0.731
- mitoOX [6, 10]: −0.877
- MTT [7, 10]: −0.187
- ROS [8, 10]: −0.130

SMILES: COc1cc2c(cc1OC)-c1c(oc3c4c(ccc3c1=O)OC(C(C)C)C4)CO2 (stereo not shown) [dehydrodihydrorotenone, reference compound]
- GE-HTS [1, 9]: −0.001
- cyt c [2, 9]: −0.211
- Viability [3, 9]: −0.172
- ΔΨm [4, 9]: 0.125
- nucOX [5, 9]: −0.290
- mitoOX [6, 9]: 0.535
- MTT [7, 9]: −3.034
- ROS [8, 9]: 0.051

SMILES: COc1ccc2c(c1)OCc1c-2oc2cc(OC)ccc12 [dehydrovariabilin]
- GE-HTS ([1]; composite Z-score vs DMSO): 0.367
- cyt c ([2]; composite Z-score vs DMSO): 0.043
- Viability ([3]; composite Z-score vs DMSO): 0.309
- ΔΨm ([4]; composite Z-score vs DMSO): 0.951
- nucOX ([5]; composite Z-score vs DMSO): 0.277
- mitoOX ([6]; composite Z-score vs DMSO): 0.416
- MTT ([7]; composite Z-score vs DMSO): −1.225
- ROS ([8]; composite Z-score vs DMSO): 0.167

SMILES: CCN1C[C@]2(C)CC[C@H](OC)[C@@]34C1[C@]1(OCO[C@@]15C[C@H](OC)[C@H]1C[C@]3(O)[C@@H]5[C@H]1OC)[C@@H](OC(C)=O)[C@H]24 [deltaline]
- GE-HTS (composite Z-score) [1, 11]: −0.220
- cyt c (composite Z-score) [2, 11]: 0.271
- Viability (composite Z-score) [3, 11]: −0.735
- ΔΨm (composite Z-score) [4, 11]: −0.496
- nucOX (composite Z-score) [5, 11]: −0.062
- mitoOX (composite Z-score) [6, 11]: −0.422
- MTT (composite Z-score) [7, 11]: −1.231
- ROS (composite Z-score) [8, 11]: 1.654

SMILES: CC(=O)O[C@@H]1CC2C(C)(C)CCC[C@]2(C)C2CC[C@]3(C)C(=CC(=O)O[C@H]3c3ccoc3)[C@@]21C (stereo partly shown) [deoxodeoxydihydrogedunin]
- GE-HTS [1, 9]: −1.452
- cyt c [2, 9]: 0.837
- Viability [3, 9]: 0.876
- ΔΨm [4, 9]: 0.941
- nucOX [5, 9]: −1.370
- mitoOX [6, 9]: −1.397
- MTT [7, 9]: −0.551
- ROS [8, 9]: 0.995

SMILES: CC1(C)C2CC(=O)O[C@@]3(C)C4=CC(=O)O[C@@H](c5ccoc5)[C@]4(C)CCC3[C@@]2(C)C=C[C@H]1O (stereo partly shown) [deoxyandirobin lactone]
- GE-HTS [1, 9]: −1.510
- cyt c [2, 9]: 0.893
- Viability [3, 9]: 0.281
- ΔΨm [4, 9]: −0.395
- nucOX [5, 9]: −1.558
- mitoOX [6, 9]: −1.179
- MTT [7, 9]: −1.509
- ROS [8, 9]: 0.837

SMILES: C=C1C2=CC(=O)O[C@@H](c3ccoc3)[C@]2(C)CC[C@@H]1[C@@]1(C)C=CC(=O)C(C)(C)[C@@H]1CC(=O)OC [deoxyandirobin]
- GE-HTS [1, 9]: 1.352
- cyt c [2, 9]: 1.196
- Viability [3, 9]: 0.894
- ΔΨm [4, 9]: 0.381
- nucOX [5, 9]: 1.240
- mitoOX [6, 9]: 1.246
- MTT [7, 9]: 0.232
- ROS [8, 9]: −1.077

SMILES: CC(=O)O[C@@H]1C[C@H]2C(C)(C)C(=O)C=C[C@]2(C)[C@H]2CC[C@]3(C)C(=CC(=O)O[C@H]3c3ccoc3)[C@@]21C [deoxygedunin]
- GE-HTS ([1]; composite Z-score vs DMSO): −1.229
- cyt c ([2]; composite Z-score vs DMSO): 1.083
- Viability ([3]; composite Z-score vs DMSO): −0.326
- ΔΨm ([4]; composite Z-score vs DMSO): 1.327
- nucOX ([5]; composite Z-score vs DMSO): −1.298
- mitoOX ([6]; composite Z-score vs DMSO): −0.808
- MTT ([7]; composite Z-score vs DMSO): −0.532
- ROS ([8]; composite Z-score vs DMSO): −0.640

SMILES: CC(=O)O[C@@H]1C=C[C@]2(C)C(C[C@@H](OC(C)=O)[C@]3(C)C4=CC(=O)O[C@H](c5ccoc5)[C@@]4(C)CCC23)C1(C)C (stereo partly shown) [deoxygedunol acetate]
- GE-HTS [1, 9]: −0.815
- cyt c [2, 9]: 0.095
- Viability [3, 9]: −0.767
- ΔΨm [4, 9]: 0.137
- nucOX [5, 9]: −0.850
- mitoOX [6, 9]: −0.639
- MTT [7, 9]: −1.930
- ROS [8, 9]: 1.251
